Reference: US6465465B1, “Process for the treatment of erectile dysfunction and product therefor” (Arzneimittelwerk Dresden GmbH, priority 2000, dated 2002)

Tests used:
phosphodiesterase 5 = target: T1, phosphodiesterase 5 (Homo sapiens, UniProt O76074); test: PDE 5 activity in enzyme preparations from human thrombocytes; type: biochemical; settings: human thrombocyte enzyme, 0.5 μM [3H]cGMP; read-out: IC50, inhibition of phosphodiesterase 5
T1 construct: The thrombocytes are lysed by ultrasound and used in the PDE 5 assay; from tissue; host or cells: human thrombocytes (platelets) from citrate-anticoagulated blood, lysed by ultrasound
Procedure: PDE 5 activity is determined in enzyme preparations from human thrombocytes. Human blood was anti-coagulated with citrate. By centrifuging at 700 g for 20 minutes at room temperature, the thrombocyte-rich plasma in the supernatant is separated from the erythrocytes and leukocytes. The thrombocytes are lysed by ultrasound and used in the PDE 5 assay. With a few modifications, the phosphodiesterase activity is determined by the method described by Thompson et al. (Thompson, W. J., Appleman, M. M., Assay of cyclic nucleotide phosphodiesterase and resolution of multiple molecular forms of the enzyme, Adv. Cycl. Nucl. Res. 1979, 10, 69-92). The reaction mixtures contain 50 mM of tris HCl (pH 7.4), 5.5 mM of MgCl2, the inhibitors in variable concentrations, the enzyme preparation and the fuirther components necessary for determining the individual isoenzymes PDE 5 (see below). The reaction is started by the addition of the substrate, 0.5 μM of [^3H] cGMP (approximately 6,000 CPM/test). The final volume is […]. Test substances are prepared as stock solutions in DMSO. The DMSO concentration in the reaction mixture is 1% v/v. The PDE 5 activity is not affected by this concentration of DMSO. After the reaction is started by the addition of substrate, the samples are incubated for 30 minutes at 37° C. The reaction is stopped by heating the test tubes for 2 minutes at 110° C. The samples remain for a further 10 minutes in ice. The addition of 30 μL of 5′-nucleotidase (1 mg/mL, from a Crotalus adamanteus snake poison suspension) is followed by an incubation for 10 minutes at 37° C. The samples are stopped on ice. After the addition of 400 μL of a (1:1:1) mixture of Dowex, water and ethanol, the samples are mixed well and incubated once again for 15 minutes on ice. The reaction vessels are centrifuged for 20 minutes at 3,000 g. Subsequently, 200 μL aliquots of the supernatant are transferred directly to scintillation vessels. After the addition of 3 mL of scintillator, the samples are measured in the Betacounter. The in each case nonspecific enzyme activities are determined in the presence of 100 μM of IBMX for the determination of the PDE 5 and subtracted from the test values.

human atrium tissue = test: Influencing cAMP and cGMP levels in human atrium strips; type: cell-based; settings: 1.0 μmoles/L, 10 minutes
Procedure: (§1) Strips of human atrium and human corpus cavernosum are incubated for 10 minutes with the test compounds at a concentration of 1.0 μmoles/L The preparations are frozen with liquid nitrogen and the resulting levels of the cyclic nucleotides are determined.

[1] = test system: human corpus cavernosum tissue; test: Influencing cAMP and cGMP levels in human corpus cavernosum strips; type: cell-based; settings: 1.0 μmoles/L, 10 minutes
Procedure: as §1

[2] = test system: Rat fetal lung fibroblast cells (RFL-6); test: Reinforcement of NO donor-induced intracellular cGMP increase in rat fetal lung fibroblasts; type: cell-based; settings: RFL-6 cells
Text: Rat fetal lung fibroblast cells (RFL-6) represent a suitable medium for investigating influence of the action of NO on the intracellular cGNP level (Ishii et al. 1991). The basic mechanism can be transferred to the smooth vascular musculature of the corpus cavemosum.
As a fuinction of the concentration, the inventive compounds reinforce the increase in the intracellular cGXD level induced by the NO donor S-nitroso-N-acetyl-D,L-penicillamine.

[3] = test system: human corpus cavernosum strips; test: In vitro relaxation of human corpus cavernosum pre-contracted with noradrenalin; type: cell-based; settings: organ bath
Procedure: Strips of human corpus cavernosum are pre-contracted in an organ bath with noradrenalin. For test compounds, the relaxation is determined as a function of the concentration.

Compound | IC50 (phosphodiesterase 5) [nM] | melting point [°C] | further results
CCc1nc(C)c2c(=O)n(Cc3ccc(Cl)cc3)c3ccc(OC)nc3n12 [Example 9, 5-(4-chlorobenzyl)-1-ethyl-8-methoxy-3-methyl-imidazo[1,5-a]-pyrido[3,2-e]pyrazinone] | 112 | 201 to 202 | 
CCCc1nn(C)c2c(=O)[nH]c(-c3cc(S(=O)(=O)N4CCN(C)CC4)ccc3OCC)nc12 [sildenafil, reference compound] |  |  | increase of cAMP level (human atrium tissue): 240%; increase of cGMP level (human atrium tissue): 147%; increase of cAMP level [1]: 238%; increase of cGMP level [1]: 15%
CCc1nc(C)c2c(=O)n(Cc3ccc(OC)cc3)c3ccc(OC)nc3n12 [Example 7, 1-ethyl-8-methoxy-5-(4-methoxybenzyl)-8-methoxy-3-methyl-imidazo[1,5-a]-pyrido[3,2-e]pyrazinone] | 104 | 156 to 158 | 
CCc1nc(C)c2c(=O)n(Cc3c(F)ccc(F)c3F)c3ccc(OC)nc3n12 [Example 13, 1-ethyl-8-methoxy-3-methyl-5-(2,3,6-trifluorobenzyl)-imidazo[1,5-a]-pyrido[3,2-e]pyrazinone] | 16 | 183 to 185 | effectiveness relative to the nonspecific PDE inhibitor IBMX ([2]; cGMP level increase): 1000 times; increase in the intracellular cGMP level ([2]; compound at 0.10 μmoles/l, NO donor S-nitroso-N-acetyl-D,L-penicillamine): significantly induces an increase; EC50 [3]: 150 nM
CCc1nc(C)c2c(=O)n(Cc3c(F)cccc3Cl)c3ccc(OC)nc3n12 [Example 11, 5-(2-chloro-6-fluorobenzyl)-1-ethyl-8-methoxy-3-methyl-imidazo[1,5-a]-pyrido[3,2-e]pyrazinone] | 19 | 197 to 200 | increase of cAMP level (human atrium tissue): 11%; increase of cGMP level (human atrium tissue): 247%; increase of cAMP level [1]: 80%; increase of cGMP level [1]: 214%
CCc1nc(C)c2c(=O)n(Cc3ccc(F)cc3)c3ccc(OC)nc3n12 [Example 8] | 126 | 189 to 191 | 
CCc1nc(C)c2c(=O)n(Cc3ccccc3)c3ccc(OC)nc3n12 [Example 2, 5-benzyl-1-ethyl-8-methoxy-3-methyl-imidazo[1,5-a]-pyrido[3,2-e]pyrazinone] | 203 | 166 to 167 | 
CCCc1nc(C)c2c(=O)n(Cc3c(F)cccc3Cl)c3ccc(OC)nc3n12 [Example 14, 5-(2-chloro-6-fluorobenzyl)-8-methoxy-3-methyl-1-propyl-imidazo[1,5-a]-pyrido[3,2-e]pyrazinone] | 8 | 159 to 162 | 
5-(2,6-dichlrobenzyl)-1-ethyl-8-methoxy-3-methyl-imidazol[1,5-a]-pyrido[3,2-e]pyrazinone [Example 10] | 132 |  | 
CCCc1nc(C)c2c(=O)n(Cc3c(F)ccc(F)c3F)c3ccc(OC)nc3n12 [Example 16, 8-methoxy-3-methyl-1-propyl-5-(2,3,6-trifluorobenzyl)-imidazo[1,5-a]-pyrido[3,2-e]pyrazinone] | 5 | 197 to 199 | 
5-cyclohexyl-1-ethyl-8-methoxy-3-methyl-imidazo[1,5-a]-pyrido[3,2-e]pyrazinone [Example 1] | 25 |  | 
CCCc1nc(C)c2c(=O)n(Cc3c(F)cccc3F)c3ccc(OC)nc3n12 [Example 15, 5-(2,6-difluorobenzyl)-8-methoxy-3-methyl-1-propyl-imidazo[1,5-a]-pyrido[3,2-e]pyrazinone] | 2 | 171 to 172 | 
CCc1nc(C)c2c(=O)n(Cc3ccccc3F)c3ccc(OC)nc3n12 [Example 5, 1-ethyl-5-(2-fluorobenzyl)-8-methoxy-3-methyl-imidazo[1,5-a]-pyrido[3,2-e]pyrazinone] | 59 | 186 to 187 | 
CCc1nc(C)c2c(=O)n(Cc3c(F)cccc3F)c3ccc(OC)nc3n12 [Example 12, 5-(2,6-difluorobenzyl)-1-ethyl-8-methoxy-3-methyl-imidazo[1,5-a]-pyrido[3,2-e]pyrazinone] | 38 | 177 to 180 | 
